Drawing on patent publication US10968193B2, “Antidiabetic bicyclic compounds” (Merck Sharp & Dohme Corp., priority 2014, dated 2021), this text covers EC50 for 45 compounds.

This assay concerns the target T1, human GPR40 (Homo sapiens, UniProt O14842).
T1 construct: expressed in transfected cells; host or cells: HEK cells stably expressing the aequorin reporter
Nature of the assay: Inositol Phosphate Turnover (IP1) Assay 3. The class given is cell-based. The following applies: HEK cells stably expressing human GPR40. A digest of the protocol: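 HEK cells stably expressing human GPR40, plated 16 h before, were treated with compound for 60 min at 37 °C in stimulation buffer. IP1 measured by HTRF (665/620 nm ratio) against an IP1 standard curve; activity normalized to a reference compound, EC50 from 4-parameter fit.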

T1 sequence (O14842 whole entry): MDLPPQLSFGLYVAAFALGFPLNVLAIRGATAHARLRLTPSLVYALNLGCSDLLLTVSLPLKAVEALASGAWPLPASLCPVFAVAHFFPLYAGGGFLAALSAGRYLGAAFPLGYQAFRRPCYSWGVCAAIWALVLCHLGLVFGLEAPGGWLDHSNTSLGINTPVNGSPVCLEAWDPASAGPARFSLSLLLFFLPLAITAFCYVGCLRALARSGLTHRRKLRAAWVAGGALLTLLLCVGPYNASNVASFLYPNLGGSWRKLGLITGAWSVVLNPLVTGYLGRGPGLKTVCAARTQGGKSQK

As to `COc1cc(-c2ccc(C3CCc4ccc([C@H](C5CC5)[C@H](C)C(=O)O)cc4O3)cc2CN2CC3CC3C2)c(C#N)cn1` (single isomer, unassigned) [Example 192], the 50% effective concentration (EC50) (in general, the concentration that produces a half-maximal response) turned out to be 0.3 nM.

Consider `COc1cc(-c2ccc(C3CCc4ccc([C@H](C5CC5)[C@H](C)C(=O)O)cc4O3)cc2CN(C)C(C)(C)C)c(C#N)cn1` (single isomer, unassigned) [Example 193], for which the EC50 was found to be 1.5 nM. The result for `COc1cc(-c2ccc(C3CCc4ccc([C@H](C5CC5)[C@H](C)C(=O)O)cc4O3)cc2CN(C)C(C)(C)C)c(C#N)cn1` (single isomer, unassigned) [Example 194] reads 1.1 nM. The result for `CCN(C)Cc1cc(C2CCc3ccc([C@H](C4CC4)[C@H](C)C(=O)O)cc3O2)ccc1-c1cc(OC)ncc1C#N` (single isomer, unassigned) [Example 195] reads 12 nM. The result for `CCN(C)Cc1cc(C2CCc3ccc([C@H](C4CC4)[C@H](C)C(=O)O)cc3O2)ccc1-c1cc(OC)ncc1C#N` (single isomer, unassigned) [Example 196] reads 7.2 nM; that for `COc1cc(-c2ccc(C3CCc4ccc([C@H](C5CC5)[C@H](C)C(=O)O)c(F)c4O3)cc2CN2CCCC2)c(F)cn1` (single isomer, unassigned) [Example 198], 4.7 nM. `COc1cc(-c2ccc(C3CCc4ccc([C@H](C5CC5)[C@H](C)C(=O)O)c(F)c4O3)cc2CN2CCCC2)c(F)cn1` (single isomer, unassigned) [Example 199] gave a 50% effective concentration (EC50) of 5.7 nM. The result for `COc1cc(-c2ccc(C3CCc4ccc([C@H](C5CC5)[C@H](C)C(=O)O)c(F)c4O3)cc2CN2CCCCC2)c(F)cn1` (single isomer, unassigned) [Example 200] reads 1.5 nM; that for `COc1cc(-c2ccc(C3CCc4ccc([C@H](C5CC5)[C@H](C)C(=O)O)c(F)c4O3)cc2CN2CCCCC2)c(F)cn1` (single isomer, unassigned) [Example 201], 4.4 nM. The result for `COc1cc(-c2ccc(C3CCc4ccc([C@H](C5CC5)[C@H](C)C(=O)O)c(F)c4O3)cc2CN2CCCCC23CC3)c(F)cn1` (single isomer, unassigned) [Example 202] reads 0.16 nM.

As for `COc1cc(-c2ccc(C3CCc4ccc([C@H](C5CC5)[C@H](C)C(=O)O)c(F)c4O3)cc2CN2CCCCC23CC3)c(F)cn1` (single isomer, unassigned) [Example 203], the EC50 was 0.16 nM. The result for `CCN(CC)Cc1cc(C2CCc3ccc([C@H](C4CC4)[C@H](C)C(=O)O)c(F)c3O2)ccc1-c1cc(OC)ncc1F` (single isomer, unassigned) [Example 204] reads 2.1 nM; that for `CCN(CC)Cc1cc(C2CCc3ccc([C@H](C4CC4)[C@H](C)C(=O)O)c(F)c3O2)ccc1-c1cc(OC)ncc1F` (single isomer, unassigned) [Example 205], 2.4 nM; that for `COc1cc(-c2ccc(C3CCc4ccc([C@H](C5CC5)[C@H](C)C(=O)O)c(F)c4O3)cc2CN2CCCC2(C)C)c(F)cn1` (single isomer, unassigned) [Example 206], 1.3 nM. The result for `COc1cc(-c2ccc(C3CCc4ccc([C@H](C5CC5)[C@H](C)C(=O)O)c(F)c4O3)cc2CN2CCCC2(C)C)c(F)cn1` (single isomer, unassigned) [Example 207] reads 1.3 nM; that for `COc1cc(-c2ccc(C3CCc4ccc([C@H](C5CC5)[C@H](C)C(=O)O)c(F)c4O3)cc2CN2[C@H](C)CC[C@H]2C)c(F)cn1` (single isomer, unassigned) [Example 208], 0.73 nM; that for `COc1cc(-c2ccc(C3CCc4ccc([C@H](C5CC5)[C@H](C)C(=O)O)c(F)c4O3)cc2CN2[C@H](C)CC[C@H]2C)c(F)cn1` (single isomer, unassigned) [Example 209], 0.5 nM. The result for `COc1cc(-c2ccc(C3CCc4ccc([C@H](C5CC5)[C@H](C)C(=O)O)c(F)c4O3)cc2CN2CCC[C@H]2C)c(F)cn1` (single isomer, unassigned) [Example 210] reads 3.1 nM; that for `COc1cc(-c2ccc(C3CCc4ccc([C@H](C5CC5)[C@H](C)C(=O)O)c(F)c4O3)cc2CN2CCC[C@H]2C)c(F)cn1` (single isomer, unassigned) [Example 211], 2.1 nM. On to `COc1cc(-c2ccc(C3CCc4ccc([C@H](C5CC5)[C@H](C)C(=O)O)c(F)c4O3)cc2CN2CCC[C@@H]2C)c(F)cn1` (single isomer, unassigned) [Example 212], for which it took 3.1 nM to reach a half-maximal effect (EC50). The result for `COc1cc(-c2ccc(C3CCc4ccc([C@H](C5CC5)[C@H](C)C(=O)O)c(F)c4O3)cc2CN2CCC[C@@H]2C)c(F)cn1` (single isomer, unassigned) [Example 213] reads 1.4 nM; that for `CCOc1cc(-c2ccc(C3CCc4ccc([C@H](C5CC5)[C@H](C)C(=O)O)cc4O3)cc2CN(CC)CC)c(Cl)cn1` (single isomer, unassigned) [Example 214], 12 nM; that for `CCOc1cc(-c2ccc(C3CCc4ccc([C@H](C5CC5)[C@H](C)C(=O)O)cc4O3)cc2CN(CC)CC)c(Cl)cn1` (single isomer, unassigned) [Example 215], 6 nM. In turn, `CCOc1cc(-c2ccc(C3CCc4ccc([C@H](C5CC5)[C@H](C)C(=O)O)cc4O3)cc2CN2CCCC2)c(Cl)cn1` (single isomer, unassigned) [Example 217] displayed an EC50 of 57 nM. The result for `CCOc1cc(-c2ccc(C3CCc4ccc([C@H](C5CC5)[C@H](C)C(=O)O)cc4O3)cc2CN2CCCC2)c(Cl)cn1` (single isomer, unassigned) [Example 218] reads 10 nM. The result for `COc1cc(-c2ccc(C3CCc4ccc([C@H](C5CC5)[C@H](C)C(=O)O)cc4O3)c(F)c2CN2CCCC2)c(F)cn1` (single isomer, unassigned) [Example 219] reads 2 nM; that for `COc1cc(-c2ccc(C3CCc4ccc([C@H](C5CC5)[C@H](C)C(=O)O)cc4O3)c(F)c2CN2CCCC2)c(F)cn1` (single isomer, unassigned) [Example 220], 7.2 nM; that for `CCN(CC)Cc1cc(C2CCc3ccc([C@H](C4CC4)[C@H](C)C(=O)O)cc3O2)ccc1-c1ccnc(OC)c1` (single isomer, unassigned) [Example 221], 14 nM. The result for `COc1cc(-c2ccc(C3CCc4ccc([C@H](C5CC5)[C@H](C)C(=O)O)cc4O3)cc2CN2CCCCC23CC3)ccn1` (single isomer, unassigned) [Example 222] reads 1.3 nM; that for `COc1cc(-c2ccc(C3CCc4ccc([C@H](C5CC5)[C@H](C)C(=O)O)cc4O3)c(CN3CCCCC34CC4)c2)ccn1` (single isomer, unassigned) [Example 223], 0.05 nM; that for `COc1cc(-c2ccc(C3CCc4ccc([C@H](C5CC5)[C@H](C)C(=O)O)cc4O3)c(CN3CCCCC34CC4)c2)ccn1` (single isomer, unassigned) [Example 224], 11 nM. With `CCN(CC)C(C)c1cc(C2CCc3ccc([C@H](C4CC4)[C@H](C)C(=O)O)cc3O2)ccc1-c1cc(OC)ncc1F` (single isomer, unassigned) [Example 244], the EC50 stood at 0.43 nM. The result for `CCN(CC)C(C)c1cc(C2CCc3ccc([C@H](C4CC4)[C@H](C)C(=O)O)cc3O2)ccc1-c1cc(OC)ncc1F` (single isomer, unassigned) [Example 245] reads 5.4 nM; that for `CCN(C(C)C)C(C)c1cc(C2CCc3ccc([C@H](C4CC4)[C@H](C)C(=O)O)cc3O2)ccc1-c1ccnc(OC)c1` (single isomer, unassigned) [Example 247], 1.3 nM; that for `CCN(C(C)C)C(C)c1cc(C2CCc3ccc([C@H](C4CC4)[C@H](C)C(=O)O)cc3O2)ccc1-c1ccnc(OC)c1` (single isomer, unassigned) [Example 248], 11.5 nM. The result for `COc1cc(-c2ccc(C3CCc4ccc([C@H](C5CC5)[C@H](C)C(=O)O)cc4O3)cc2CN2CCC3CC32)c(F)cn1` (single isomer, unassigned) [Example 256a] reads 0.6 nM. The result for `COc1cc(-c2ccc(C3CCc4ccc([C@H](C5CC5)[C@H](C)C(=O)O)cc4O3)cc2CN2CCC3CC32)c(F)cn1` (single isomer, unassigned) [Example 256b] reads 0.9 nM; that for `CCC1CCCCN1Cc1cc(C2CCc3ccc(C(C4CC4)C(C)C(=O)O)cc3O2)ccc1-c1ccnc(OC)c1` (single isomer, unassigned) [Example 258a], 1.7 nM; that for `CCC1CCCCN1Cc1cc(C2CCc3ccc(C(C4CC4)C(C)C(=O)O)cc3O2)ccc1-c1ccnc(OC)c1` (single isomer, unassigned) [Example 258b], 2.2 nM. Turning to `CCC1CCCN1Cc1cc(C2CCc3ccc([C@H](C4CC4)[C@H](C)C(=O)O)cc3O2)ccc1-c1cc(OC)ncc1F` (single isomer, unassigned) [Example 267a], a half-maximal effect (EC50) was put at 0.7 nM. The result for `CCC1CCCN1Cc1cc(C2CCc3ccc([C@H](C4CC4)[C@H](C)C(=O)O)cc3O2)ccc1-c1cc(OC)ncc1F` (single isomer, unassigned) [Example 267b] reads 0.1 nM; that for `CCC1CCCCN1Cc1cc(C2CCc3ccc([C@H](C4CC4)[C@H](C)C(=O)O)cc3O2)ccc1-c1cc(OC)ncc1F` (single isomer, unassigned) [Example 273a], 0.08 nM; that for `CCC1CCCCN1Cc1cc(C2CCc3ccc([C@H](C4CC4)[C@H](C)C(=O)O)cc3O2)ccc1-c1cc(OC)ncc1F` (single isomer, unassigned) [Example 273b], 0.3 nM. The result for `CCN(CC)Cc1cc(C2CCc3ccc([C@H](C4CC4)[C@H](C)C(=O)O)cc3O2)ccc1-c1ccnc(OC)c1` (single isomer, unassigned) [Example 283] reads 4.4 nM.

The compound `COc1cc(-c2ccc(C3CCc4ccc([C@H](C5CC5)[C@H](C)C(=O)O)cc4O3)nc2CN2CCCC2)c(F)cn1` (stereo partly drawn) [Example 90] showed a 50% effective concentration (EC50) of 9.5 nM.
